One assay deals with T1, human factor XIa (Homo sapiens, UniProt P03951).
T1 construct: purchased Kordia
As to the kind of experiment: Measurement of FXIa inhibition (fluorogenic peptide substrate Boc-Glu(OBzl)-Ala-Arg-AMC). It is filed as biochemical. Conditions: factor XIa from Kordia, 15 min preincubation, 30 min at 22° C., fluorescence; read-out: IC50. The method, then:
a.1) Measurement of FXIa Inhibition
The factor XIa inhibition of the substances according to the invention is determined using a biochemical test system which utilizes the reaction of a peptidic factor XIa substrate to determine the enzymatic activity of human factor XIa. Here, factor XIa cleaves from the peptic factor XIa substrate the C-terminal aminomethylcoumarin (AMC), the fluorescence of which is measured. The determinations are carried out in microtitre plates.
(§1) In each case 1 μl of the diluted substance solutions is placed into the wells of white microtitre plates from Greiner (384 wells). […] After 15 min of incubation, the enzyme reaction is started by addition of 20 μl of the factor XIa substrate Boc-Glu(OBzl)-Ala-Arg-AMC dissolved in assay buffer (10 μM in assay buffer) from Bachem, the mixture is incubated at room temperature (22° C.) for 30 min and fluorescence is then measured (excitation: 360 nm, emission: 460 nm). The measured emissions of the test batches with test substance are compared to those of control batches without test substance (only dimethyl sulphoxide instead of test substance in dimethyl sulphoxide), and IC50 values are calculated from the concentration/activity relationships.

In a further assay the test system is plasma. As to the kind of experiment: Determination of anticoagulatory activity: activated partial thromboplastin time (aPTT) in plasma. Conditions: concentration of test substance which brings about a 1.5-fold extension of the aPTT, C.K. Prest kit, 37° C. It counts as biochemical, human. The method, then:
a.4) Determination of Anticoagulatory Activity
The anticoagulatory activity of the test substances is determined in vitro in human and animal plasma (for example mouse, rat, rabbit, pig and dog plasma). To this end, blood is drawn off in a mixing ratio of sodium citrate/blood of 1:9 using a 0.11 molar sodium citrate solution as receiver. Immediately after the blood has been drawn off, it is mixed thoroughly and centrifuged at about 4000 g for 15 minutes. The supernatant is pipetted off.
The activated partial thromboplastin time (aPTT) is determined in the presence of varying concentrations of test substance or the corresponding solvent using a commercial test kit (C.K. Prest from Diagnostica Stago). The test compounds are incubated with the plasma and the PTT reagent (cephalin, kaolin) at 37° C. for 3 minutes. Coagulation is then started by addition of a 25 mM aqueous calcium chloride solution, and the time when coagulation occurs is determined. The concentration of test substance which brings about a 1.5-fold extension of the aPTT is determined.

For the next assay, the target named is T2, human plasmin (Homo sapiens, UniProt P00747).
T2 construct: purchased Kordia
The experiment in a line: Measurement of plasmin inhibition (fluorogenic peptide substrate MeOSuc-Ala-Phe-Lys-AMC). It counts as biochemical. Particulars: plasmin from Kordia, 15 min preincubation, 30 min at 22° C., fluorescence. How it is done:
a.6) Measurement of Plasmin Inhibition
The plasmin inhibition of the inventive substances is determined using a biochemical test system which utilizes the reaction of a peptidic plasmin substrate to determine the enzymatic activity of human plasmin. Here, plasmin cleaves from the peptic plasmin substrate the C-terminal aminomethylcoumarin (AMC), the fluorescence of which is measured. The determinations are carried out in microtitre plates.
as §1, with “Test substances are dissolved in dimethyl sulphoxide and serially diluted in dimethyl sulphoxide (3000 μM to 0.0078 μM; resulting final concentrations in the test: 50 μM to 0.00013 μM). In” for “In”, “plasmin” for “factor XIa”, “MeOSuc-Ala-Phe-Lys-AMC” for “Boc-Glu(OBzl)-Ala-Arg-AMC”, “(150” for “(10”

pIC50: −log10 of the molar value. Structures can show the parent of a compound that is named as a salt.

T1 sequence (P03951 388-625 limits assumed): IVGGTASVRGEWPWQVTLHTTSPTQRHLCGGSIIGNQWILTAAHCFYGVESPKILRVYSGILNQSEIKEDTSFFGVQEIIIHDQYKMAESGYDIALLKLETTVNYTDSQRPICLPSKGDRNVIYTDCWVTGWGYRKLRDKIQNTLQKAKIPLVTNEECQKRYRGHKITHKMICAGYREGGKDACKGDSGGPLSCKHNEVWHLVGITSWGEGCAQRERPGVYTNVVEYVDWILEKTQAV
T1 sequence (P03951 19-387 partner limits assumed): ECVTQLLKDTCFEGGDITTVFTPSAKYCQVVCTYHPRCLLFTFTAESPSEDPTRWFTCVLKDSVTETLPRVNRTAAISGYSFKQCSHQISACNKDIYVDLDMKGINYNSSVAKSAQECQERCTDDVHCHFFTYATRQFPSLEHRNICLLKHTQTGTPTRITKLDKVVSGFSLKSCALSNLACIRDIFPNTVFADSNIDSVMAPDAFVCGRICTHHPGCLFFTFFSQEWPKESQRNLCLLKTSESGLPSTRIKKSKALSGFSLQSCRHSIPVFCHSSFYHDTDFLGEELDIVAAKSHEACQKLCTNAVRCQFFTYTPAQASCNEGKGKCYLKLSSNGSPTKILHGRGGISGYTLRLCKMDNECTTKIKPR
T2 sequence (P00747 581-810 limits assumed): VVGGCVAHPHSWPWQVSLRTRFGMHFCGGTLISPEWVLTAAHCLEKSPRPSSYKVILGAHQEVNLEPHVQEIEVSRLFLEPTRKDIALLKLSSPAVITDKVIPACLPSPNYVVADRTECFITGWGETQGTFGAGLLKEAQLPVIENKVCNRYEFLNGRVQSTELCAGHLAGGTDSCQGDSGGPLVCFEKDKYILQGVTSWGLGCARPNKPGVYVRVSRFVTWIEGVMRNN
T2 sequence (P00747 97-580 partner limits assumed): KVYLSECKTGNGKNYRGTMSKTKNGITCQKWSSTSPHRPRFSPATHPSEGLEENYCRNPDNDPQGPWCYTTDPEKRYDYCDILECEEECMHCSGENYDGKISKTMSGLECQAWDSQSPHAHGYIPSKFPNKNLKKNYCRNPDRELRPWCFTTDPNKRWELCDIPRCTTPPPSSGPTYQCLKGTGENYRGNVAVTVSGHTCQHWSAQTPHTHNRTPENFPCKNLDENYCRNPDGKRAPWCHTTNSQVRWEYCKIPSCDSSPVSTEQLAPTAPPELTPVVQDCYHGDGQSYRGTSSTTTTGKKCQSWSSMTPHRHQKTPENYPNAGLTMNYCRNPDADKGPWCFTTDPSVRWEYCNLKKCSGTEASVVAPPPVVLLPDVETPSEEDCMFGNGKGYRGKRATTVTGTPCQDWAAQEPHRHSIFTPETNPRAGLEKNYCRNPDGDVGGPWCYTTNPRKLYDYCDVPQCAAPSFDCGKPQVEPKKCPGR

In the case of `Cc1cc(S(=O)(=O)NC2CCNCC2)ccc1-c1ccc(C[C@H](NC(=O)[C@H]2CC[C@H](CN)CC2)C(=O)Nc2ccc(-c3nnn[nH]3)cc2)cc1` [Example 1, trans-4-(Aminomethyl)-N-[(2S)-3-[2′-methyl-4′-(piperidin-4-ylsulphamoyl)biphenyl-4-yl]-1-oxo-1-{[4-(1H-tetrazol-5-yl)phenyl]amino}propan-2-yl]cyclohexanecarboxamide hydrochloride], the pIC50 at human factor XIa is 8.96. The “Concentration for 1.5-fold aPTT extension” value with plasma came out at 0.1 µmol/L.
For `CCN(CC)S(=O)(=O)c1ccc(-c2ccc(C[C@H](NC(=O)[C@H]3CC[C@H](CN)CC3)C(=O)Nc3ccc4c(=O)[nH][nH]c4c3)cc2)c(C)c1` [Example 17, trans-4-(Aminomethyl)-N-{(2S)-3-[4′-(diethylsulphamoyl)-2′-methylbiphenyl-4-yl]-1-oxo-1-[(3-oxo-2,3-dihydro-1H-indazol-6-yl)amino]propan-2-yl}cyclohexanecarboxamide hydrochloride], in that order: 8.46 and 0.13 µmol/L.
For `Cc1cc(S(N)(=O)=O)ccc1-c1ccc(C[C@H](NC(=O)[C@H]2CC[C@H](CN)CC2)C(=O)Nc2ccc(-c3nnc(Cl)[nH]3)cc2)cc1` [Example 20, trans-4-(Aminomethyl)-N-[(2S)-1-{[4-(3-chloro-4H-1,2,4-triazol-5-yl)phenyl]amino}-3-(2′-methyl-4′-sulphamoylbiphenyl-4-yl)-1-oxopropan-2-yl]cyclohexanecarboxamide hydrochloride], in that order: 8.74 and 0.18 µmol/L.
For `CS(=O)(=O)c1ccc(-c2ccc(C[C@H](NC(=O)[C@H]3CC[C@H](CN)CC3)C(=O)Nc3ccc(-c4nn[nH]n4)cc3)cc2)c(C(F)(F)F)c1` [Example 21, trans-4-(Aminomethyl)-N-[(2S)-3-[4′-(methylsulphonyl)-2′-(trifluoromethyl)biphenyl-4-yl]-1-oxo-1-{[4-(2H-tetrazol-5-yl)phenyl]amino}propan-2-yl]cyclohexanecarboxamide hydrochloride], in that order: 9.05 and 0.23 µmol/L.
Regarding `NC[C@H]1CC[C@H](C(=O)N[C@@H](Cc2ccc(-c3ccc(S(=O)(=O)NC4CCNCC4)cc3C(F)(F)F)cc2)C(=O)Nc2ccc(-c3nn[nH]n3)cc2)CC1` [Example 8, trans-4-(Aminomethyl)-N-[(2S)-1-oxo-3-[4′-(piperidin-4-ylsulphamoyl)-2′-(trifluoromethyl)biphenyl-4-yl]-1-{[4-(2H-tetrazol-5-yl)phenyl]amino}propan-2-yl]cyclohexanecarboxamide hydrochloride], the pIC50 on human factor XIa was 9.00. For the same molecule, in the assay on plasma, the “Concentration for 1.5-fold aPTT extension” value amounted to 0.08 µmol/L.
For `NC[C@H]1CC[C@H](C(=O)N[C@@H](Cc2ccc(-c3ccc(N4CCOCC4=O)cc3)cc2)C(=O)Nc2ccc(-c3nn[nH]n3)cc2)CC1` [Example 25, trans-4-(Aminomethyl)-N-[(2S)-1-oxo-3-[4′-(3-oxomorpholin-4-yl)biphenyl-4-yl]-1-{[4-(2H-tetrazol-5-yl)phenyl]amino}propan-2-yl]cyclohexanecarboxamide hydrochloride], at human factor XIa, the pIC50 was 8.60. For the same molecule, the “Concentration for 1.5-fold aPTT extension” value in the assay with plasma came to 0.36 µmol/L.
For `Cc1cc(S(=O)(=O)NC2CCNC(C)C2)ccc1-c1ccc(C[C@H](NC(=O)[C@H]2CC[C@H](CN)CC2)C(=O)Nc2ccc(-c3nn[nH]n3)cc2)cc1` (stereo partly drawn) [Example 10, trans-4-(Aminomethyl)-N-[(2S)-3-(2′-methyl-4′-{[(2-methylpiperidin-4-yl]sulphamoyl}biphenyl-4-yl)-1-oxo-1-{[4-(2H-tetrazol-5-yl)phenyl]amino}propan-2-yl]cyclohexanecarboxamide hydrochloride], in that order: 8.96 and 0.1 µmol/L.
On to `Cc1cc(C#N)ccc1-c1ccc(C[C@H](NC(=O)[C@H]2CC[C@H](CN)CC2)C(=O)Nc2ccc(-c3nn[nH]n3)cc2)cc1` [Example 23, trans-4-(Aminomethyl)-N-[(2S)-3-(4′-cyano-2′-methylbiphenyl-4-yl)-1-oxo-1-{[4-(2H-tetrazol-5-yl)phenyl]amino}propan-2-yl]cyclohexanecarboxamide hydrochloride], for which, on human factor XIa, the pIC50 was 8.96. In the assay with plasma, the “Concentration for 1.5-fold aPTT extension” value turned out to be 0.27 µmol/L.
Taken in the same sequence, the figures for `CN(C)C1CCC(NS(=O)(=O)c2ccc(-c3ccc(C[C@H](NC(=O)[C@H]4CC[C@H](CN)CC4)C(=O)Nc4ccc5[nH]c(=O)[nH]c5c4)cc3)c(C(F)(F)F)c2)CC1` (stereo partly drawn) [Example 28, trans-4-(Aminomethyl)-N-{(2S)-3-[4′-{[4-(dimethylamino)cyclohexyl]sulphamoyl}-2′-(trifluoromethyl)biphenyl-4-yl]-1-oxo-1-[(2-oxo-2,3-dihydro-1H-benzimidazol-5-yl)amino]propan-2-yl}cyclohexanecarboxamide hydrochloride] were 8.28 and 0.06 µmol/L.
Taken in the same sequence, the figures for `COC(=O)c1ccc(-c2ccc(C[C@H](NC(=O)[C@H]3CC[C@H](CN)CC3)C(=O)Nc3ccc(-c4nn[nH]n4)cc3)cc2)c(Cl)c1.Cl` [Example 11, Methyl 4′-[(2S)-2-({[trans-4-(aminomethyl)cyclohexyl]carbonyl}amino)-3-oxo-3-{[4-(2H-tetrazol-5-yl)phenyl]amino}propyl]-2-chlorobiphenyl-4-carboxylate hydrochloride] were 8.72 and 0.49 µmol/L.
For the molecule `CNS(=O)(=O)c1ccc(-c2ccc(C[C@H](NC(=O)[C@H]3CC[C@H](CN)CC3)C(=O)Nc3ccc4c(=O)[nH][nH]c4c3)cc2)c(C)c1` [Example 18, trans-4-(Aminomethyl)-N-{(2S)-3-[2′-methyl-4′-(methylsulphamoyl)biphenyl-4-yl]-1-oxo-1-[(3-oxo-2,3-dihydro-1H-indazol-6-yl)amino]propan-2-yl}cyclohexanecarboxamide hydrochloride], the pIC50 on human factor XIa is 8.27. In addition, the “Concentration for 1.5-fold aPTT extension” value with plasma was found to be 0.13 µmol/L.
On to `Cc1cc(S(=O)(=O)N2CCCC2)ccc1-c1ccc(C[C@H](NC(=O)[C@H]2CC[C@H](CN)CC2)C(=O)Nc2ccc3c(=O)[nH][nH]c3c2)cc1` [Example 15, trans-4-(Aminomethyl)-N-{(2S)-3-[2′-methyl-4′-(pyrrolidin-1-ylsulphonyl)biphenyl-4-yl]-1-oxo-1-[(3-oxo-2,3-dihydro-1H-indazol-6-yl)amino]propan-2-yl}cyclohexanecarboxamide hydrochloride], for which the pIC50 on human factor XIa was 8.55; against human plasmin it was 7.64. Moreover, the “Concentration for 1.5-fold aPTT extension” value in the assay with plasma was found to be 0.09 µmol/L.
Taken in the same sequence, the figures for `Cc1cc(S(=O)(=O)NC2CC2)ccc1-c1ccc(C[C@H](NC(=O)[C@H]2CC[C@H](CN)CC2)C(=O)Nc2ccc3c(=O)[nH][nH]c3c2)cc1` [Example 12, trans-4-(Aminomethyl)-N-{(2S)-3-[4′-(cyclopropylsulphamoyl)-2′-methylbiphenyl-4-yl]-1-oxo-1-[(3-oxo-2,3-dihydro-1H-indazol-6-yl)amino]propan-2-yl}cyclohexanecarboxamide hydrochloride] were 8.57, 7.52 and 0.04 µmol/L.

A word on the pIC50: it is the IC50 on a negative log10 scale, so that one unit is a factor of ten.

Values taken from patent US20160237044A1, “SUBSTITUTED PHENYLALANINE DERIVATIVES” (BAYER PHARMA AKTIENGESELLSCHAFT, priority 2013, published 2016).
